Laboratory results reported in patent US20120035187A1 (priority 2009, published 2012).

Key:
[1] = system: hamsters with cerebellar ataxia; assay: Falling down frequency of hamsters with cerebellar ataxia; type: in vivo, hamster; settings: for Falling down frequency (count/min): hamster with cerebellar ataxia, agent of Example 1, 0.5 ml/hamster intraperitoneally once a day for 56 days; for Falling down frequency (frequency/min): cerebellar ataxia hamsters, 10-weeks of age
Source text: Since NK-4 was confirmed to have a neurodegenerative inhibitory action in Experiment 1, hamsters with cerebellar ataxia (cerebellar ataxia is called “cerebellar A” and hamsters with cerebellar ataxia are called “hamsters with cerebellar A”, hereinafter) as a suitable model for human neurodegenerative diseases (e.g., spinal cerebellar degeneration) were subjected to examine the influence of NK-4 administration on their behaviors and brain tissues. Twenty-five hamsters with natural mutation (Nna1 inhibition), which are known to lose Purkinje's cells after three-weeks of age and then induce a spontaneous onset of kinetic motor ataxia after seven-weeks of age (see Akita K. et al., “J. Neurogenetics”, Vol. 21, pp. 19-29, 2007), had been fed at Hayashibara Biochemical Laboratories., Inc., Okayama, Japan, were randomly allocated to the test groups 1 to 5, five heads in each group, as shown in Table 2. Prior to the onset of cerebellar A (at three-weeks of age), PBS was started to administer to the hamsters in the test group 1 at a dose of 10 ml/kg/day. Prior to the onset of cerebellar A (at three-weeks of age), NK-4 was started to be administered to the hamsters in the test groups 2 to 4 at a daily dose of 20 μg/kg, 100 μg/kg or 500 μg/kg. “IGF-1, human, a product name of insulin-like growth factor, commercialized by Assaypro LLC, MO, USA. These administered ingredients were intraperitoneally administered daily to hamsters once a day up to 10-weeks of age. The degree of symptom of cerebellar A and the improvement effect on the symptom by NK-4 were evaluated with an index of improvement in motor coordination of hamsters by conducting once a week the later described rotarod test and the slant tolerance test. At the age of 10-weeks, the hamsters were subjected to counting the falling down frequency and extracted their brains, which were then histologically evaluated. In parallel, the concentration of glutamic acid in the bloods and cerebrospinal fluids (CSF) of the hamsters was assayed. As a test group 6, five normal hamsters, with the same age as the hamsters with cerebellar A used in the test groups 1 to 5, were provided and tested similarly as the hamsters with cerebellar A in such a manner of intraperitoneally administering PBS to them at a dose of 10 ml/kg/day once a day up to 10-weeks of age.
Hamsters, 10-weeks of age, were respectively housed in a breeding cage. Their falling down frequencies within one minute were counted under a macroscopic observation and the data from five heads in each group were averaged. For reference, the hamsters with cerebellar A used in this experiment are known to increase their falling down frequencies after nine weeks of age.
Similarly as in Experiment 2, 130 hamsters with cerebellar ataxia, born within the same week and 3-weeks of age, were randomly divided into 13 groups, consisting of 10 hamsters, respectively. […] The hamsters (10 heads) in the remaining one group were intraperitoneally administered from their age of 3- to 10-weeks with a sterilized 10% maltose solution (pyrogen-free) in an amount of 0.5 ml/hamster (control) once a day for 56 days At the next day after the end of the administration, body weight of each hamster was weighed, followed by performing rotarod test, slope endurance test, and counting of falling down frequency. The types of compounds applied to each group and the results are in Table 25.

[2] = system: ICR mice administered with amyloid β fragment; assay: Degeneration or defect of hippocampal pyramidal cells, mouse administered with amyloid β fragment, agents of Example 1; type: in vivo; settings: 4-point grade score none (0) to severe (3), average of 10 mice; agent of Example 1, 0.3 ml/head intraperitoneally once a day up to the 8th day
Experimental: (§1) One hundred and thirty ICR mice (commercialized by Charles Liver Laboratories Japan Inc., Kanagawa, Japan) were randomly divided into 13 groups, consisting of 10 mice in each group. Amyloid β fragment, represented by an amino acid sequence of SEQ ID NO: 1, used in Experiment 3 was aged at 37° C. for four days, and administered to the lateral ventricle of each mouse in an amount of 9 nmol/6 μl/mouse (the administration method is referred to “Brain Research”, Vol. 706, pp. 181-193 (1996)). […] The mice (10 heads) in the remaining one group were intraperitoneally administered with a sterilized 10% maltose solution (pyrogen-free) once a day up to the 8th day in an amount of 0.3 ml/mouse (control). On the 8th day after the administration, novel object recognition test (see, Japanese Patent Kokai No. 2008-193941) was performed and the average discrimination index (the ratio of prolonged seeking time for novel object to the total seeking time) as a cognitive function index were shown in Table 26. On the 9th day after the administration, the brain of the mice was anatomically isolated, prepared into tissue samples in conventional manner. Depositions of aggregation of amyloid fragment were observed by staining with Congo red or thioflavin T, and degeneration or defect of hippocampal pyramidal cells concerned with cognitive function. The degeneration or the defect of hippocampal pyramidal cells was evaluated by 4-point grade score, by regarding the condition of the control without administration of amyloid β fragment as “none (O)”, “slight (1)”, “moderate (2)”, and “sever (3)”, and the average scores of 10 mice are shown in Table 20.

[3] = system: ICR mice administered with amyloid β fragment; assay: Novel object recognition test, mouse administered with amyloid β fragment, agents of Example 1; type: in vivo; design: key: (novel − memorized seeking time)/(novel + memorized seeking time); settings: agent of Example 1, 0.3 ml/head intraperitoneally once a day up to the 8th day
Experimental: as §1
An experiment apparatus (a glass box of 30 cm in depth, 45 cm in width, and 30 cm in height) and two kinds of objects to be memorized by mice were provided. On the day before the test, the mice were allowed to seek freely in the experiment apparatus with no seeking object for 10 minutes for acclimation. On the test day, the following test was performed twice at an interval of 60 minutes. In the first trial, the same two objects were placed in the apparatus at its both ends, and the mouse was allowed to seek freely for 10 minutes. On the second trial, one of the objects used in the first test was replaced with a different kind of object, and then the mouse was allowed to seek freely for five minutes. In each experiment, when the mouse brought its muffle close to the object within 1-cm apart from the object, or made its muffle or whiskers to contact with the object, the mouse was judged to have a seeking behavior, and the seeking time thereof was measured. The object discrimination index [={(seeking time for novel object)−(seeking time for memorized object)}/{(seeking time of novel object)+(seeking time of memorized object)}] was calculated. The object discrimination index means the ratio of an increased seeking time for novel object to the total seeking time, and the ratio becomes larger when the memory of the once sought object was more strongly held, and it becomes smaller when the memory was more weakly held.

| SMILES | Falling down frequency (count/min) [1] | Degeneration/defluxion of hippocampal pyramidal cell [2] | Object discrimination index [3] | Falling down frequency (frequency/min) ([1]; 20 μg/kg body weight i.p. once a day) | Falling down frequency (frequency/min) ([1]; 100 μg/kg body weight i.p. once a day) | Falling down frequency (frequency/min) ([1]; 500 μg/kg body weight i.p. once a day) |
| --- | --- | --- | --- | --- | --- | --- |
| CCCCN1C=C/C(=C/C=C(/C=C/c2cc[n+](CCCC)c3ccccc23)c2cc[n+](CCCC)c3ccccc23)c2ccccc21 [NK-26] | 1.0 ± 0.7 count/min | 1.1 | 0.1 |  |  |  |
| CC[n+]1ccccc1/C=C/c1ccc(N(C)C)cc1 [NK-557] | 6.5 ± 1.1 count/min | 2.1 | 0.4 |  |  |  |
| CCCCCCCCCN1C(C)=CS\C1=C/C=C(\C=C\c1scc(C)[n+]1CCCCCCCCC)c1scc(C)[n+]1CCCCCCCCC.[I-].[I-] [NK-393] | 0.9 ± 0.8 count/min | 1.1 | 0.2 |  |  |  |
| CCN1C=CC(=CC=C(C=Cc2cc[n+](CC)c3ccccc23)c2cc[n+](CC)c3ccccc23)c2ccccc21.[I-].[I-] [NK-4] | 1.1 ± 0.8 count/min | 1.1 | 0.1 | 4.0 ± 1.0 frequency/min | 1.6 ± 0.9 frequency/min | 1.2 ± 0.8 frequency/min |
| CCCCCCCN1C=CC(=CC=C(C=Cc2cc[n+](CCCCCCC)c3ccccc23)c2cc[n+](CCCCCCC)c3ccccc23)c2ccccc21.[I-].[I-] [NK-28] | 1.3 ± 0.9 count/min | 1.4 | 0.2 |  |  |  |
| CCCCCCCCN1C=CC(=CC=C(C=Cc2cc[n+](CCCCCCCC)c3ccccc23)c2cc[n+](CCCCCCCC)c3ccccc23)c2ccccc21.[I-].[I-] [NK-147] | 1.5 ± 0.8 count/min | 1.5 | 0.2 |  |  |  |
| CCN1/C(=C/C=C(/C=C/c2sc3ccccc3[n+]2CC)c2sc3ccccc3[n+]2CC)Sc2ccccc21.[I-].[I-] [NK-100] | 1.3 ± 0.7 count/min | 0.9 | 0.1 |  |  |  |
| COc1ccc2oc(/C=C/c3ccc(N(C)C)cc3)[n+](C)c2c1 [NK-1516] | 7.1 ± 0.8 count/min | 1.9 | 0.4 |  |  |  |
| CN(C)c1ccc(/C=C/c2oc3ccccc3[n+]2C)cc1 [NK-528] | 5.2 ± 1.4 count/min | 2.2 | 0.3 |  |  |  |
